How the values were obtained:
[1] = Mutagenicity in Salmonella typhimurium TA98 assessed as inhibition of bacterial growth at 0.152 to 333 ug incubated in absence of S9 fraction by micro-Ames test; assay type: toxicity, Salmonella enterica subsp. enterica serovar Typhimurium; conditions: in vivo; dose 0.152-333 µg
[2] = Mutagenicity in Escherichia coli WP2uvrA assessed as inhibition of bacterial growth at 0.152 to 333 ug incubated in absence of S9 fraction by micro-Ames test; assay type: toxicity; conditions: in vivo; dose 0.152-333 µg
[3] = Mutagenicity in Escherichia coli WP2uvrA assessed as fold increase in number of revertants at 0.152 to 333 ug incubated in presence of S9 fraction by micro-Ames test relative to control; assay type: toxicity, subcellular; conditions: dose 0.152-333 µg
SARS-CoV-2 [4] = assay: Antiviral activity against SARS-CoV-2 assessed as fold change relative to YH-53; assay type: functional, Severe acute respiratory syndrome coronavirus 2
SARS-CoV-2 [5] = assay: Antiviral activity against SARS-CoV-2 hCoV-19/Japan/TKYS02037/2022 (omicron BA.2) infected in Vero E6 cells preincubated with cells for 1 day followed by viral infection and measured after 3 days by qRT-PCR analysis; assay type: functional, organism-based; conditions: Severe acute respiratory syndrome coronavirus 2, hCoV-19/Japan/TKYS02037/2022 (omicron BA.2), Vero C1008
[6] = Mutagenicity in Salmonella typhimurium TA1537 assessed as fold increase in number of revertants at 0.152 to 333 ug incubated in presence of S9 fraction by micro-Ames test relative to control; assay type: toxicity, subcellular, Salmonella enterica subsp. enterica serovar Typhimurium; conditions: dose 0.152-333 µg
[7] = Mutagenicity in Salmonella typhimurium TA1535 assessed as fold increase in number of revertants at 0.152 to 333 ug incubated in absence of S9 fraction by micro-Ames test relative to control; assay type: toxicity, Salmonella enterica subsp. enterica serovar Typhimurium; conditions: in vivo; dose 0.152-333 µg
[8] = Mutagenicity in Salmonella typhimurium TA1535 assessed as inhibition of bacterial growth at 0.152 to 333 ug incubated in absence of S9 fraction by micro-Ames test; assay type: toxicity, Salmonella enterica subsp. enterica serovar Typhimurium; conditions: in vivo; dose 0.152-333 µg
[9] = Mutagenicity in Escherichia coli WP2uvrA assessed as inhibition of bacterial growth at 0.152 to 333 ug incubated in presence of S9 fraction by micro-Ames test; assay type: toxicity, subcellular; conditions: dose 0.152-333 µg
[10] = Mutagenicity in Salmonella typhimurium TA100 assessed as inhibition of bacterial growth at 0.152 to 333 ug incubated in absence of S9 fraction by micro-Ames test; assay type: toxicity, Salmonella enterica subsp. enterica serovar Typhimurium; conditions: in vivo; dose 0.152-333 µg
[11] = Oral bioavailability in PXB mouse at 10 mg/kg measured for 24 hrs; assay type: ADME, organism-based; conditions: in vivo
SARS-CoV-2 [12] = assay: Antiviral activity against SARS-CoV-2 infected in Vero E6 cells preincubated with cells for 1 day in presence of HCl treated compound followed by viral infection and measured after 3 days by qRT-PCR analysis; assay type: functional, organism-based; conditions: Severe acute respiratory syndrome coronavirus 2, Vero C1008
[13] = Cytotoxicity against human HeLa cells expressing ACE2 and TMPRSS2; assay type: toxicity, cell-based
[14] = Half life in PXB mouse at 10 mg/kg, iv measured for 24 hrs; assay type: ADME, organism-based; conditions: in vivo
[15] = Mutagenicity in Salmonella typhimurium TA98 assessed as inhibition of bacterial growth at 0.152 to 333 ug incubated in presence of S9 fraction by micro-Ames test; assay type: toxicity, subcellular, Salmonella enterica subsp. enterica serovar Typhimurium; conditions: dose 0.152-333 µg
Vero C1008 = assay: Cytotoxicity against African green monkey Vero E6 cells infected with SARS-CoV-2 WK-521 upto 100 uM incubated for 3 days by immunostaining analysis; assay type: toxicity, cell-based; conditions: chlorocebus sabaeus, vero c1008, 72 h, time 3 day
PBMC = assay: Cytotoxicity against human PBMC cells assessed as reduction in cell viability at 0.4 uM incubated for 12 days by CCK-8 assay; assay type: toxicity, cell-based; conditions: 288 h, time 12 day
[16] = Mutagenicity in Salmonella typhimurium TA100 assessed as inhibition of bacterial growth at 0.152 to 333 ug incubated in presence of S9 fraction by micro-Ames test; assay type: toxicity, subcellular, Salmonella enterica subsp. enterica serovar Typhimurium; conditions: dose 0.152-333 µg
SARS-CoV-2 [17] = assay: Antiviral activity against SARS-CoV-2 JPN/TY/WK-521 infected in Vero E6 cells assessed as inhibition of viral replication preincubated with cells for 1 day followed by viral infection and measured after 3 to 4 days by qRT-PCR analysis; assay type: functional, organism-based; conditions: Severe acute respiratory syndrome coronavirus 2, JPN/TY/WK-521, Vero C1008
[18] = Mutagenicity in Salmonella typhimurium TA98 assessed as fold increase in number of revertants at 0.152 to 333 ug incubated in presence of S9 fraction by micro-Ames test relative to control; assay type: toxicity, subcellular, Salmonella enterica subsp. enterica serovar Typhimurium; conditions: dose 0.152-333 µg
MOLT-4 = assay: Cytotoxicity against human MOLT-4 cells assessed as reduction in cell viability at 0.4 uM incubated for 12 days by CCK-8 assay; assay type: toxicity, cell-based; conditions: molt-4, 288 h, time 12 day
SARS-CoV-2 [19] = assay: Antiviral activity against SARS-CoV-2 infected in Vero E6 cells preincubated with cells for 1 day in absence of HCl followed by viral infection and measured after 3 days by qRT-PCR analysis; assay type: functional, organism-based; conditions: Severe acute respiratory syndrome coronavirus 2, Vero C1008
[20] = Cytotoxicity against African green monkey Vero E6 cells in presence of P-glycoprotein inhibitor, CP100356; assay type: toxicity, cell-based, Vero C1008; conditions: chlorocebus sabaeus, with CP100356 (P-glycoprotein inhibitor)
[21] = Mutagenicity in Salmonella typhimurium TA1537 assessed as inhibition of bacterial growth at 0.152 to 333 ug incubated in presence of S9 fraction by micro-Ames test; assay type: toxicity, subcellular, Salmonella enterica subsp. enterica serovar Typhimurium; conditions: dose 0.152-333 µg
[22] = Cytotoxicity against human A549-hACE2-TMPRSS2 cells; assay type: toxicity, cell-based
[23] = Mutagenicity in Salmonella typhimurium TA1535 assessed as fold increase in number of revertants at 0.152 to 333 ug incubated in presence of S9 fraction by micro-Ames test relative to control; assay type: toxicity, subcellular, Salmonella enterica subsp. enterica serovar Typhimurium; conditions: dose 0.152-333 µg
[24] = Mutagenicity in Salmonella typhimurium TA1537 assessed as fold increase in number of revertants at 0.152 to 333 ug incubated in absence of S9 fraction by micro-Ames test relative to control; assay type: toxicity, Salmonella enterica subsp. enterica serovar Typhimurium; conditions: in vivo; dose 0.152-333 µg
[25] = Mutagenicity in Escherichia coli WP2uvrA assessed as fold increase in number of revertants at 0.152 to 333 ug incubated in absence of S9 fraction by micro-Ames test relative to control; assay type: toxicity; conditions: in vivo; dose 0.152-333 µg
[26] = Mutagenicity in Salmonella typhimurium TA100 assessed as fold increase in number of revertants at 0.152 to 333 ug incubated in absence of S9 fraction by micro-Ames test relative to control; assay type: toxicity, Salmonella enterica subsp. enterica serovar Typhimurium; conditions: in vivo; dose 0.152-333 µg
SARS-CoV-2 [27] = assay: Antiviral activity against SARS-CoV-2 JPN/TY/WK-521 infected in Vero E6 cells preincubated with cells for 1 day followed by viral infection and measured after 3 days by qRT-PCR analysis; assay type: functional, organism-based; conditions: Severe acute respiratory syndrome coronavirus 2, JPN/TY/WK-521, Vero C1008
MT2 = assay: Cytotoxicity against human MT2 cells assessed as reduction in cell viability at 0.4 uM incubated for 12 days by CCK-8 assay; assay type: toxicity, cell-based; conditions: mt2, 288 h, time 12 day
[28] = Mutagenicity in Salmonella typhimurium TA1535 assessed as inhibition of bacterial growth at 0.152 to 333 ug incubated in presence of S9 fraction by micro-Ames test; assay type: toxicity, subcellular, Salmonella enterica subsp. enterica serovar Typhimurium; conditions: dose 0.152-333 µg
[29] = Cytotoxicity against human HepG2 cells; assay type: toxicity, cell-based
[30] = Mutagenicity in Salmonella typhimurium TA1537 assessed as inhibition of bacterial growth at 0.152 to 333 ug incubated in absence of S9 fraction by micro-Ames test; assay type: toxicity, Salmonella enterica subsp. enterica serovar Typhimurium; conditions: in vivo; dose 0.152-333 µg
[31] = Half life in PXB mouse at 10 mg/kg, po measured for 24 hrs; assay type: ADME, organism-based; conditions: in vivo
[32] = Mutagenicity in Salmonella typhimurium TA98 assessed as fold increase in number of revertants at 0.152 to 333 ug incubated in absence of S9 fraction by micro-Ames test relative to control; assay type: toxicity, Salmonella enterica subsp. enterica serovar Typhimurium; conditions: in vivo; dose 0.152-333 µg
[33] = Cytotoxicity against African green monkey Vero E6 cells incubated for 3 days by WST-8 assay; assay type: toxicity, cell-based, Vero C1008; conditions: chlorocebus sabaeus, time 3 day
SARS-CoV-2 [34] = assay: Antiviral activity against SARS-CoV-2 JPN/TY/WK-521 infected in Vero E6 cells assessed as fold change preincubated with cells for 1 day followed by viral infection and measured after 3 days by qRT-PCR analysis relative to 7-fluoro-N-((S)-1-(((S)-1-(4-fluorobenzo[d]thiazol-2-yl)-1-oxo-3-((S)-2-oxopyrrolidin-3-yl)propan-2-yl)amino)-3,3-dimethyl-1-oxobutan-2-yl)-4-methoxy-1H-indole-2-carboxamide; assay type: functional, Severe acute respiratory syndrome coronavirus 2; conditions: time 4 day
[35] = Mutagenicity in Salmonella typhimurium TA100 assessed as fold increase in number of revertants at 0.152 to 333 ug incubated in presence of S9 fraction by micro-Ames test relative to control; assay type: toxicity, subcellular, Salmonella enterica subsp. enterica serovar Typhimurium; conditions: dose 0.152-333 µg

Question: Which results are given for `CC(C)(C)[C@H](NC(=O)C(F)(F)F)C(=O)N1C[C@H]2[C@@H]([C@H]1C(=O)N[C@@H](C[C@@H]1CCNC1=O)C(=O)c1nc3c(F)cccc3s1)C2(C)C`?
Answer: Activity [1]: Non-Toxic; Activity [2]: Non-Toxic; fold change (FC) [3]: > 2; fold change (FC) (SARS-CoV-2 [4]): 0.012; EC50 (SARS-CoV-2 [5]): 48 nM; fold change (FC) [6]: > 2; fold change (FC) [7]: > 2; Activity [8]: Non-Toxic; Activity [9]: Non-Toxic; Activity [10]: Non-Toxic; bioavailability [11]: 48%; EC50 (SARS-CoV-2 [12]): 87 nM; CC50 [13]: > 100 µM; half-life [14]: 75 min; Activity [15]: Non-Toxic; Activity (Vero C1008): Non-Toxic; Activity (PBMC): Non-Toxic; Activity [16]: Non-Toxic; EC50 (SARS-CoV-2 [17]): 30 nM; fold change (FC) [18]: > 2; Activity (MOLT-4): Non-Toxic; EC50 (SARS-CoV-2 [19]): 74 nM; CC50 [20]: > 100 µM; Activity [21]: Non-Toxic; CC50 [22]: > 100 µM; fold change (FC) [23]: > 2; fold change (FC) [24]: > 2; fold change (FC) [25]: > 2; fold change (FC) [26]: > 2; EC50 (SARS-CoV-2 [27]): 12 nM; Activity (MT2): Non-Toxic; Activity [28]: Non-Toxic; CC50 [29]: > 200 µM; Activity [30]: Non-Toxic; half-life [31]: 229 min; fold change (FC) [32]: > 2; CC50 at 72 h [33]: > 100 µM; fold change (FC) (SARS-CoV-2 [34]): 0.057; fold change (FC) [35]: > 2

— ChEMBL document CHEMBL5365531, “Structure-Activity Relationship Studies of SARS-CoV-2 Main Protease Inhibitors Containing 4-Fluorobenzothiazole-2-carbonyl Moieties” (J Med Chem, 2023)
